# Results reported in US20170253607A1, “LONG-ACTING HIV PROTEASE INHIBITOR” (Shionogi & Co., Ltd., priority 2014, published 2017).
# pIC50: −log10 of the molar value.
# Target: HIV-1 PR (Human immunodeficiency virus type 1 group M subtype B, UniProt P04585)
# Assay: HIV-protease inhibitory activity assay (FRET peptide substrate)
# Assay type: biochemical
# Conditions: Test Example 1
# How it was run: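 HIV-1 PR (0.83 ng) preincubated with compounds 20 min at room temperature in 0.1 mol/L NaAc, 0.5 mol/L NaCl, 1 mmol/L EDTA, 1 mmol/L DTT, 0.05% Tween 20, pH 4.8. Cleavage of HiLyte Fluor 488/QXL 520 FRET peptide (2 μmol/L) read after 60 minutes at 485/535 nm; IC50 from four-parameter logistic fit.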
row,SMILES,pIC50
1,COc1ccc(S(=O)(=O)N(CC(C)C)CC(O)C(Cc2ccc(NCC3=C(c4sc5c(c4C(=O)O)CC(C)(C)CC5)CCC3)cc2)NC(=O)OC2COC3(C)OCCC23)cc1 (stereo not drawn) [Compound I-381],8.33
2,COc1ccc(S(=O)(=O)N(CC(C)C)CC(O)C(Cc2ccc(OCC3=C(c4sc5c(c4C(=O)O)CC(C)(C)CC5)COC3)cc2)NC(=O)OC2COC3(C)OCCC23)cc1 (stereo not drawn) [Compound I-385],8.90
3,CC(C)CN(CC(O)C(Cc1ccc(OCCOc2ccc(-c3ccc(F)cc3F)cc2C(=O)O)cc1)NC(=O)OC1COC2OCCC12)S(=O)(=O)c1ccc2ncsc2c1 (stereo not drawn) [Compound I-814],9.12
4,COc1ccc(S(=O)(=O)N(CC(C)C)CC(O)C(Cc2ccc(N3CCC(Oc4ccccc4C(=O)Nc4sc5c(c4C(=O)O)CC(C)(C)CC5)C3)cc2)NC(=O)OC2COC3(C)OCCC23)cc1 (stereo not drawn) [Compound I-595],8.66
5,COc1ccc(S(=O)(=O)N(CC(C)C)CC(O)C(Cc2ccc(N3Cc4ccc(-c5sc6c(c5C(=O)O)CC(C)(C)CC6)cc4C3)cc2)NC(=O)OC2COC3(C)OCCC23)cc1 (stereo not drawn) [Compound I-222],8.54
6,COc1ccc(S(=O)(=O)N(CC(C)C)CC(O)C(Cc2ccc(OCC3CCCN3Cc3sc4c(c3C(=O)O)CC(C)(C)CC4)cc2)NC(=O)OC2COC3(C)OCCC23)cc1 (stereo not drawn) [Compound I-194],8.79
7,COc1ccc(S(=O)(=O)N(CC(C)C)CC(O)C(Cc2ccc(N(C)C3CCc4c(-c5sc6c(c5C(=O)O)CC(C)(C)CC6)cccc43)cc2)NC(=O)OC2COC3(C)OCCC23)cc1 (stereo not drawn) [Compound I-710],8.37
8,COc1ccc(S(=O)(=O)N(CC(C)C)CC(O)C(Cc2ccc(N3CCC(c4ccc(-c5sc6c(c5C(=O)O)CC(C)(C)CC6)cc4)C3)cc2)NC(=O)OC2COC3(C)OCCC23)cc1 (stereo not drawn) [Compound I-577],8.19
9,COc1ccc(S(=O)(=O)N(CC(C)C)CC(O)C(Cc2ccc(Nc3ccc(-c4sc5c(c4C(=O)O)CC(C)(C)CC5)cc3)cc2)NC(=O)OC2COC3(C)OCCC23)cc1 (stereo not drawn) [Compound I-468],8.25
10,COc1ccc(S(=O)(=O)N(CC(C)C)CC(O)C(Cc2ccc(NC3CCCc4c(-c5sc6c(c5C(=O)O)CC(C)(C)CC6)cccc43)cc2)NC(=O)OC2COC3(C)OCCC23)cc1 (stereo not drawn) [Compound I-711],8.09
11,COc1ccc(S(=O)(=O)N(CC(C)C)CC(O)C(Cc2ccc(N(C)CCOc3ccccc3-c3sc4c(c3C(=O)O)CC(C)(C)CC4)cc2)NC(=O)OC2COC3(C)OCCC23)cc1 (stereo not drawn) [Compound I-647],8.59
12,COc1ccc(S(=O)(=O)N(CC(C)C)CC(O)C(Cc2ccc(NCc3ccc(OCC(=O)O)cc3)cc2)NC(=O)OC2COC3(C)OCCC23)cc1 (stereo not drawn) [Compound I-321],8.72
13,COc1ccc(S(=O)(=O)N(CC(C)C)CC(O)C(Cc2ccc(NCc3c(-c4sc5c(c4C(=O)O)CC(C)(C)CC5)cccc3[N+](=O)[O-])cc2)NC(=O)OC2COC3(C)OCCC23)cc1 (stereo not drawn) [Compound I-546],8.73
14,COc1ccc(S(=O)(=O)N(CC(C)C)CC(O)C(Cc2ccc(N(C)Cc3cc4c(cc3-c3sc5c(c3C(=O)O)CC(C)(C)CC5)OCC(=O)N4C)cc2)NC(=O)OC2COC3(C)OCCC23)cc1 (stereo not drawn) [Compound I-768],8.53
15,COc1ccc(S(=O)(=O)N(CC(C)C)CC(O)C(Cc2ccc(OC3CN(c4ccc(-c5sc6c(c5C(=O)O)CC(C)(C)CC6)cc4)C3)cc2)NC(=O)OC2COC3(C)OCCC23)cc1 (stereo not drawn) [Compound I-361],8.21
16,COc1ccc(S(=O)(=O)N(CC(C)C)CC(O)C(Cc2ccc(N(Cc3ccccc3-c3sc4c(c3C(=O)O)CC(C)(C)CC4)C(C)=O)cc2)NC(=O)OC2COC3(C)OCCC23)cc1 (stereo not drawn) [Compound I-339],8.74
17,COc1ccc(S(=O)(=O)N(CC(C)C)CC(O)C(Cc2ccc(N3CCN(C(=O)c4sc5c(c4C(=O)O)CC(C)(C)CC5)CC3)cc2)NC(=O)OC2COC3(C)OCCC23)cc1 (stereo not drawn) [Compound I-224],8.71
18,COc1ccc(S(=O)(=O)N(CC(C)C)CC(O)C(Cc2ccc(NCc3ccc(C(=O)N(C)C)cc3-c3sc4c(c3C(=O)O)CC(C)(C)CC4)cc2)NC(=O)OC2COC3(C)OCCC23)cc1 (stereo not drawn) [Compound I-417],8.79
19,COc1ccc(S(=O)(=O)N(CC(C)C)CC(O)C(Cc2ccc(OCc3ccc(-c4sc5c(c4C(=O)O)CC(C)(C)CC5)c(C)c3)cc2)NC(=O)OC2COC3(C)OCCC23)cc1 (stereo not drawn) [Compound I-91],8.87
20,COc1ccc(S(=O)(=O)N(CC(C)C)CC(O)C(Cc2ccc(NCCOc3ccc(-c4sc5c(c4C(=O)O)CC(C)(C)CC5)c(C)c3)cc2)NC(=O)OC2COC3(C)OCCC23)cc1 (stereo not drawn) [Compound I-518],8.25
21,CC(C)CN(CC(O)C(Cc1ccc(OCc2ccc(-c3ccccc3)cc2C(=O)N(C)C)cc1)NC(=O)OC1COC2(C)OCCC12)S(=O)(=O)c1ccc2ncsc2c1 (stereo not drawn) [Compound I-161],9.03
22,CNC(=O)c1ccc(CNc2ccc(CC(NC(=O)OC3COC4(C)OCCC34)C(O)CN(CC(C)C)S(=O)(=O)c3ccc(OC)cc3)cc2)c(-c2sc3c(c2C(=O)O)CC(C)(C)CC3)c1 (stereo not drawn) [Compound I-416],8.79
23,CCCCCCN(Cc1ccccc1-c1sc2c(c1C(=O)O)CC(C)(C)CC2)c1ccc(CC(NC(=O)OC2COC3(C)OCCC23)C(O)CN(CC(C)C)S(=O)(=O)c2ccc(OC)cc2)cc1 (stereo not drawn) [Compound I-428],7.80

row,SMILES,pIC50
1,COc1ccc(S(=O)(=O)N(CC(C)C)CC(O)C(Cc2ccc(N(C)Cc3cccc(F)c3-c3sc4c(c3C(=O)O)CC(C)(C)CC4)cc2)NC(=O)OC2COC3(C)OCCC23)cc1 (stereo not drawn) [Compound I-493],8.61
2,COc1ccc(S(=O)(=O)N(CC(C)C)CC(O)C(Cc2ccc(NCc3ccccc3-c3cccc4[nH]c(C(=O)O)cc34)cc2)NC(=O)OC2COC3(C)OCCC23)cc1 (stereo not drawn) [Compound I-502],8.73
3,COc1ccc(S(=O)(=O)N(CC(C)C)CC(O)C(Cc2ccc(N(C)CC(=O)Nc3sc4c(c3C(=O)O)CC(C)(C)CC4)cc2)NC(=O)OC2COC3(C)OCCC23)cc1 (stereo not drawn) [Compound I-663],8.55
4,COc1ccc(S(=O)(=O)N(CC(C)C)CC(O)C(Cc2ccc(NCc3ccc(N4CC(C)(C)C4=O)cc3-c3sc4c(c3C(=O)O)CC(C)(C)CC4)cc2)NC(=O)OC2COC3(C)OCCC23)cc1 (stereo not drawn) [Compound I-740],8.80
5,COc1ccc(S(=O)(=O)N(CC(C)C)CC(O)C(Cc2ccc(OCc3ccccc3-c3sc(Cl)c(CC(C)C)c3C(=O)O)cc2)NC(=O)OC2COC3OCCC23)cc1 (stereo not drawn) [Compound I-850],8.99
6,COc1ccc(S(=O)(=O)N(CC(C)C)CC(O)C(Cc2ccc(-c3cc(C(=O)O)cs3)cc2)NC(=O)OC2COC3(C)OCCC23)cc1 (stereo not drawn) [Compound I-109],8.92
7,COc1ccc(S(=O)(=O)N(CC(C)C)CC(O)C(Cc2ccc(NCc3ccccc3-c3ccc(Nc4sc5c(c4C(=O)O)CC(C)(C)CC5)nc3)cc2)NC(=O)OC2COC3(C)OCCC23)cc1 (stereo not drawn) [Compound I-775],8.44
8,COc1ccc(S(=O)(=O)N(CC(C)C)CC(O)C(Cc2ccc(N(C)Cc3cc(N4CCOCC4)ccc3-c3sc4c(c3C(=O)O)CC(C)(C)CC4)cc2)NC(=O)OC2COC3(C)OCCC23)cc1 (stereo not drawn) [Compound I-700],8.69
9,COc1ccc(S(=O)(=O)N(CC(C)C)CC(O)C(Cc2ccc(N3CCN(c4ccc(-c5sc6c(c5C(=O)O)CC(C)(C)CC6)cc4)CC3)cc2)NC(=O)OC2COC3(C)OCCC23)cc1 (stereo not drawn) [Compound I-209],8.51
10,COc1ccc(S(=O)(=O)N(CC(C)C)CC(O)C(Cc2ccc(NCc3cnn4ccc(C(=O)Nc5sc6c(c5C(=O)O)CC(C)(C)CC6)nc34)cc2)NC(=O)OC2COC3(C)OCCC23)cc1 (stereo not drawn) [Compound I-442],8.53
11,CC(C)CN(CC(O)C(Cc1ccc(NCc2ccccc2-c2sc3c(c2C(=O)O)CC(C)(C)CC3)cc1)NC(=O)OC1COC2(C)OCCC12)S(=O)(=O)c1ccc2nc(O)sc2c1 (stereo not drawn) [Compound I-482],8.64
12,COc1ccc(S(=O)(=O)N(CC(C)C)CC(O)C(Cc2ccc(NC(C)c3ccccc3-c3sc4c(c3C(=O)O)CC(C)(C)CC4)cc2)NC(=O)OC2COC3(C)OCCC23)cc1 (stereo not drawn) [Compound I-383],8.19
13,COc1ccc(S(=O)(=O)N(CC(C)C)CC(O)C(Cc2ccc(N(C)Cc3cc(-c4ccc5ccccc5c4)ccc3-c3sc4c(c3C(=O)O)CC(C)(C)CC4)cc2)NC(=O)OC2COC3(C)OCCC23)cc1 (stereo not drawn) [Compound I-692],7.58
14,CC(C)CN(CC(O)C(Cc1ccc(NCc2ccccc2C(=O)Nc2sc3c(c2C(=O)O)CC(C)(C)CC3)cc1)NC(=O)OC1COC2(C)OCCC12)S(=O)(=O)c1ccc2ncsc2c1 (stereo not drawn) [Compound I-592],8.50
15,COc1ccc(S(=O)(=O)N(CC(C)C)CC(O)C(Cc2ccc(N(C)Cc3cc(C(F)(F)F)ccc3-n3nc(C(=O)O)c4c3CCC(C)(C)C4)cc2)NC(=O)OC2COC3(C)OCCC23)cc1 (stereo not drawn) [Compound I-447],8.63
16,COc1ccc(S(=O)(=O)N(CC(C)C)CC(O)C(Cc2ccc(OCc3ncsc3-c3sc4c(c3C(=O)O)CC(C)(C)CC4)cc2)NC(=O)OC2COC3(C)OCCC23)cc1 (stereo not drawn) [Compound I-89],8.95
17,COc1ccc(S(=O)(=O)N(CC(C)C)CC(O)C(Cc2ccc(OCc3ccccc3OCC(=O)O)cc2)NC(=O)OC2COC3(C)OCCC23)cc1 (stereo not drawn) [Compound I-311],8.73
18,COc1ccc(S(=O)(=O)N(CC(C)C)CC(O)C(Cc2ccc(NCc3ccccc3-c3ccc(OC(F)(F)F)cc3C(=O)O)cc2)NC(=O)OC2COC3(C)OCCC23)cc1 (stereo not drawn) [Compound I-499],8.76
19,COc1ccc(S(=O)(=O)N(CC(C)C)CC(O)C(Cc2ccc(N(C)CC3CCCC3c3sc4c(c3C(=O)O)CC(C)(C)CC4)cc2)NC(=O)OC2COC3(C)OCCC23)cc1 (stereo not drawn) [Compound I-470],8.57
20,COc1ccc(S(=O)(=O)N(CC(C)C)CC(O)C(Cc2ccc(NC3CCCc4c(-c5sc6c(c5C(=O)O)CC(C)(C)CC6)cccc43)cc2)NC(=O)OC2COC3(C)OCCC23)cc1 (stereo not drawn) [Compound I-751],7.80
21,COc1ccc(S(=O)(=O)N(CC(C)C)CC(O)C(Cc2ccc(OCc3ccccc3-c3ccc(-n4nc5c(c4C(=O)O)CC(C)(C)CC5)cc3)cc2)NC(=O)OC2COC3(C)OCCC23)cc1 (stereo not drawn) [Compound I-301],8.50
22,COc1ccc(S(=O)(=O)N(CC(C)C)CC(O)C(Cc2ccc(NCc3ccc(N4CCCCC4)cc3-c3sc4c(c3C(=O)O)CC(C)(C)CC4)cc2)NC(=O)OC2COC3(C)OCCC23)cc1 (stereo not drawn) [Compound I-677],8.63
